The values below come from patent US20140045908A1, “HSP90 INHIBITORY COMPOUNDS IN TREATING JAK/STAT SIGNALING-MEDIATED CANCERS” (SYNTA PHARMACEUTICALS CORP., priority 2011, published 2014).

What all share (assay type): cell-based, human
Assay [1] has as its system JAK/STAT signaling in SET-2 cells. The assay can be described thus: Western blot of JAK/STAT signaling in SET-2 cells. Conditions: 24 h. The procedure: SET-2 cells were dosed with the indicated concentrations of ganetespib or 17-AAG for 24 h and analyzed to determine JAK/STAT protein and target levels using the antibodies indicated.
(§1) Cells were disrupted in lysis buffer (CST) and solubilized in 2% SDS. Xenograft tumors (average volume of 100-200 mm3) were excised, cut in half, and flash frozen in liquid nitrogen. Each tumor fragment was lysed in 0.5 mL of lysis buffer using a FastPrep-24 homogenizer and Lysing Matrix A (MP Biomedicals, Solon, Ohio, USA) and lysates clarified by centrifugation. Equal amounts of proteins were resolved by SDS-PAGE and immunoblotted with indicated antibodies. The antigen-antibody complex was visualized and quantitated using an Odyssey system (LI-COR, Lincoln, Nebr., USA).
For orientation: Immunoblotting shows a protein as a band on a membrane.

For assay [2], the system named is JAK/STAT target and cell cycle gene expression in HEL92.1.7 cells. Kind of assay: RNA expression profiling (RT-PCR, Affymetrix) in HEL92.1.7 cells. Conditions: 4 hour P6 (1000 nM), 24 hour ganetespib (250 nM). The procedure:
HEL92.1.7 cells were treated with DMSO, P6 (100 or 1000 nM) or ganetespib (25 or 250 nM) for 4 h or 24 h, and total RNA extracted using Trizol (Invitrogen). RNA was purified with the RNeasy kit (Qiagen, Hilden, Germany) and converted to cDNA via an iScript kit (BioRad, Hercules, Calif., USA). Oligonucleotide primers were purchased from SABiosciences (Frederick, Md., USA). PCR was done with iQ SYBR Green Supermix (Bio-Rad), and levels of the tested genes were normalized to HPRT expression using the comparative Ct method.
Biotinylated aRNA was generated by in vitro transcription using Affymetrix GeneChip Expression IVT labeling kit (Affymetrix, Santa Clara, Calif., USA). Fifteen micrograms of labeled aRNA was fragmented and hybridized to Affymetrix GeneChip Human Genome U133 Plus 2 arrays and scanned using a GeneChip Scanner (Affymetrix). Array data were analyzed with the Affymetrix Expression Console Software utilizing the MASS algorithm. In order to generate a threshold for identifying probe sets that have large differences between 1000 nM P6 (4 h) and 250 nM ganetespib (24 h) arrays and their controls in the absence of treatment replicates, data from four control arrays (DMSO only; two at 4 h, and two at 24 h) were used to create an expression level dependent fold-difference envelope that reflects the increasing measurement variability as expression level decreases. This envelope, used in lieu of a fixed fold-difference criteria, was formed by identifying the xth percentile expression-level difference (where x was large, typically 99.9%) at each mean expression level bin. To achieve this, data were used from the six possible comparisons from the four DMSO-only arrays. The resulting, smoothed threshold fold-difference envelope was then applied to the two compound-treated/control array pairs to identify those probe-sets that have large expression level differences between treatment and control. For hierarchical analysis, genes with greater than two fold changes in expression with 250 nM ganetespib were clustered using established algorithms in Cluster (49) and a subset visualized by TreeView.

Assay [3] deals with JAK2 dependent signaling in HEL92.1.7 cells. Kind of assay: Western blot of JAK/STAT signaling in HEL92.1.7 cells. Conditions: 250 nM ganetespib or 1000 nM P6. As for the experimental part: FIG. 2 compares the more durable ganetespib durable inhibition of JAK/STAT signaling to P6. HEL92.1.7 cells were cultured in the presence of 250 nM Ganetespib or 1000 nM P6 and harvested at the indicated time points. The levels of JAK2, phosphorylated and total STAT3 and STAT5, phospho-AKT, phospho-ERK and GAPDH were determined by western blot.
as §1

Assay [4] relates to JAK2/STAT3 signaling in HCC827 cells. Kind of assay: Western blot of constitutive and IL-6 induced STAT3 activity in HCC827 cells. The procedure: HCC827 lung cancer cells were treated with increasing concentrations of ganetespib or P6 for 24 h followed by a 15 min stimulation with or without 50 ng/ml human recombinant IL-6. The levels of JAK2, total and phospho-STAT3, and PIM2 were analyzed by western blot. GAPDH is included as a loading control.
as §1

Assay [5] has as its system Cdk1, phospho-Chk2, cyclins in HEL92.1.7 cells. Kind of assay: Western blot of cell cycle proteins in HEL92.1.7 cells. Conditions: ganetespib 250 nM or P6 1000 nM, 24-48 h. The procedure: Cells were harvested at the indicated time points and the levels of total and phospho-Cdk1, phospho-Chk2 and GAPDH analyzed by western blot.
FIG. 12 illustrates the effects of ganetespib on JAK/STAT and cell cycle protein expression. HEL92.1.7 cells were treated with 100 nM ganetespib and subject to western blot to determine the levels of Cdk1, cyclin B1, cyclin A1, JAK2, total and phospho-STAT3, and GAPDH at hourly intervals over an 11 h time course.
as §1

Assay [6] concerns HEL92.1.7 cells. Kind of assay: Cell viability assay (AlamarBlue, 72 h). As for the experimental part: All cell lines were obtained from the ATCC (Rockville, Md., USA), with the exception of SET-2 cells which were purchased from the German Collection of Microorganisms and Cell Cultures (DSMZ, Germany). Cells were maintained and cultured according to standard techniques at 37° C. in 5% (v/v) CO2 using culture medium recommended by the supplier.
Cells were grown in 96-well plates based on optimal growth rates determined empirically for each line. Twenty-four hours after plating, cells were dosed with the indicated compound or DMSO (0.3%) for 72 h. AlamarBlue (Invitrogen, Carlsbad, Calif., USA) was added (10% v/v) to the cells, and the plates were incubated for 3 h and subjected to fluorescence detection (Ex=545 nm, Em=600 nm) in a SpectraMax Plus 384 microplate reader (Molecular Devices, Sunnyvale, Calif., USA). Data are normalized to percent of control, with IC50 values based on a four-parameter logistic dose response curve (model 205) using XLfit version 5.1 from IDBS (Guildford, U.K.).

For assay [7], the system named is HEL92.1.7 cells. Kind of assay: Flow cytometry cell cycle analysis. As for the experimental part: HEL92.1.7 cells were plated at 0.5×10^6 cells/mL and treated as indicated. Cells were harvested and stained with propidium iodide using the BD Cycle TEST PLUS Reagent Kit (BD Biosciences, San Jose, Calif., USA) according to the manufacturer's instructions. Twenty thousand cells were analyzed for their DNA content using a FACS Caliber cytometer (BD Biosciences).
Background: A flow cytometer gives signals particle by particle.

Where [8] appears, read: 24 h, absence of external ligand.

On to `C=CCNC1=C2C[C@@H](C)C[C@H](OC)[C@H](O)[C@@H](C)/C=C(\C)[C@H](OC(N)=O)[C@@H](OC)/C=C\C=C(/C)C(=O)NC(=CC1=O)C2=O` [17-AAG, reference compound], for which the “fold less potent than ganetespib, effects on JAK/STAT signaling” value in assay [1] came to 200 fold.
Turning to `CC(C)(C)c1nc2c3cc[nH]c(=O)c3c3cc(F)ccc3c2[nH]1` [P6, reference compound], the “expression of JAK/STAT target genes (SOCS and PIM family members)” value in assay [2] was “downregulated”. The “JAK2 dependent signaling (phospho-STAT3, phospho-STAT5, ERK signaling)” value in assay [3] is “blocked JAK2 dependent signaling”. In addition, in assay [4] (setting [8]), the JAK2 expression result is “did not influence total JAK2 protein levels” and the “constitutive STAT3 activity” value is reported as “downregulated constitutive STAT3 activity”. Further, the “JAK/STAT signaling stimulated by exogenous IL-6” value in assay [4] (24 h then 15 min 50 ng/ml IL-6) is given as “blocked JAK/STAT signaling stimulation”. Besides, in assay [5], the Cdk1 protein expression result is listed as “no effect on Cdk1 expression”. In addition, the “fold less potency than ganetespib, loss of cellular viability” value in the assay on HEL92.1.7 cells [6] was determined as 30 fold. The IC50 in the assay with HEL92.1.7 cells [6] (72 h, Alamar blue, read-out: IC50, loss of cellular viability) is 614 nM. Moreover, the cell cycle distribution entry in the assay with HEL92.1.7 cells [7] was “accumulation in G1 phase only, without the loss of S phase or G2/M arrest”.

As usually defined, the IC50 is the concentration that gives 50% inhibition.
